The results in this text go back to PubChem BioAssay (NCI).

Several values for one entry are separate records, joined by “and”; a condition that tells them apart may be missing. Identical values can stand only once.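 How tested: cells in 96-well plates exposed to compound for 48 hours at five concentrations. GI50 = concentration required for 50% inhibition of growth. The concentration for full growth arrest is given as TGI.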

Test systems include BT-549 breast; DU-145 prostate; HS 578T breast; MDA-MB-231 breast; MDA-MB-435; MDA-N; NCI-H226 lung; NCI/ADR-RES ovarian; DMS 273 small cell lung; HL-60(TB) leukemia; LXFL 529 NSCLC.
Holding throughout (assay): growth of human tumour cells (NCI), 48 h

For `C(/C=C/c1ccccc1)=Nc1ccc2c(c1)Cc1ccccc1-2`, the TGI in the assay on BT-549 breast, with DU-145 prostate, with HS 578T breast, in the assay on MDA-MB-231 breast, with MDA-MB-435 and in the assay with MDA-N was more than 100 µM throughout. Further, the TGI in the assay on NCI-H226 lung and in the assay on NCI/ADR-RES ovarian was more than 100 µM each time.

As to `CC(=O)N1N=C(c2ccc3ccccc3c2O)CC1c1cccs1` (stereo not drawn), the TGI in the assay on BT-549 breast is 83.9 µM; in the assay with DU-145 prostate it was more than 100 µM; in the assay with HS 578T breast it was more than 100 µM; with MDA-MB-231 breast, more than 100 µM; in the assay on MDA-MB-435, more than 100 µM; in the assay on MDA-N, more than 100 µM. Moreover, the TGI in the assay on NCI-H226 lung is more than 100 µM; in the assay with NCI/ADR-RES ovarian it was 39.5 µM.

On to `COc1cc(C2S/C(=C/c3ccccc3)C(=O)N2c2ccc(NC(C)=O)cc2)cc(OC)c1OC` (stereo not drawn), for which the TGI stood at 65.4 µM in the assay on BT-549 breast; 83.2 µM with HS 578T breast; 41.3 µM in the assay with MDA-MB-231 breast; 62.4 µM in the assay on MDA-MB-435; 63.4 µM with MDA-N; 76.2 µM in the assay with NCI/ADR-RES ovarian.

Consider `NC(=S)N/N=C/c1nccc2ccccc12`, for which the TGI in the assay with DMS 273 small cell lung was 12.9 µM; in the assay on HL-60(TB) leukemia, 4.23 µM; with LXFL 529 NSCLC, more than 100 µM.

Regarding `NC(CSCc1ccc(I)cc1)C(=O)O` (stereo not drawn), the TGI with BT-549 breast, in the assay with DU-145 prostate, in the assay on HL-60(TB) leukemia, with HS 578T breast, in the assay with MDA-MB-231 breast and in the assay with MDA-MB-435 was more than 100 µM each time. Also, the TGI in the assay with MDA-N, with NCI-H226 lung and in the assay with NCI/ADR-RES ovarian was more than 100 µM throughout.

As to `Cc1nc2c(c(=O)[nH]1)S/C(=C(/C#N)c1nc3ccccc3[nH]1)N2c1ccccc1`, the TGI with DMS 273 small cell lung, in the assay on HL-60(TB) leukemia and in the assay on LXFL 529 NSCLC was more than 100 µM in each case.

Take `c1ccc(N2N=C(c3cccc(Nc4ccncc4)c3)CC2c2ccc3c(c2)OCO3)cc1` (stereo not drawn): the GI50 in the assay with BT-549 breast is 1.83 µM; in the assay on DU-145 prostate, 1.85 µM; in the assay on HL-60(TB) leukemia it was 1.77 µM; in the assay with HS 578T breast, 1.55 µM; with MDA-MB-435, 0.383 µM; with NCI-H226 lung, 2.07 µM. Further, the GI50 in the assay on NCI/ADR-RES ovarian was 1.66 µM. In addition, the TGI in the assay on BT-549 breast was 4.06 µM; with DU-145 prostate, 3.66 µM; in the assay with HL-60(TB) leukemia, 3.69 µM; in the assay with HS 578T breast, 3.42 µM; in the assay with MDA-MB-435, 1.47 µM; in the assay with NCI-H226 lung, 5.05 µM. The same compound displayed a TGI in the assay with NCI/ADR-RES ovarian of 3.6 µM.

With `O=C1C(Cl)N(c2cccc(Cl)c2)C1c1c[nH]c2ccccc12` (stereo not drawn), the TGI with HL-60(TB) leukemia and in the assay with LXFL 529 NSCLC was more than 100 µM in each case.

In the case of `CC[C@@H]1ON(C)[C@H]2CN(C)C(=O)[C@@H]12`, the TGI with DU-145 prostate, in the assay on HL-60(TB) leukemia, with HS 578T breast, in the assay with MDA-MB-231 breast, in the assay with MDA-MB-435 and with MDA-N was more than 100 µM throughout. The TGI in the assay on NCI-H226 lung and with NCI/ADR-RES ovarian was more than 100 µM throughout.

Take `COc1ccc(-c2csc(=Nc3ccccc3)n2CCCN(C)C)cc1`: the TGI is 37.3 µM in the assay on BT-549 breast; more than 100 µM in the assay with HL-60(TB) leukemia; more than 100 µM with MDA-MB-231 breast; 65.3 µM in the assay on MDA-MB-435; more than 100 µM in the assay on MDA-N; 38.1 µM in the assay on NCI-H226 lung. Moreover, the TGI in the assay with NCI/ADR-RES ovarian was 54.3 µM.

On to `COc1cc([C@@H]2c3cc4c(c(O)c3C[C@H]3COC(=O)[C@@H]32)OCO4)cc(OC)c1OC`, for which the TGI was 1.5 µM in the assay on DMS 273 small cell lung; more than 100 µM in the assay on MDA-MB-231 breast; 0.000802 µM with MDA-MB-435; 150 µM and 19.6 µM in the assay on NCI-H226 lung. The GI50 was 0.582 µM in the assay with HL-60(TB) leukemia, 0.392 µM in the assay on MDA-MB-231 breast, 0.000192 µM in the assay on MDA-MB-435 and 0.364 µM with NCI-H226 lung.

`C=C(C)C(=O)O[C@H]1CC2=C[C@@H](C[C@@]3(C)O[C@@H]3[C@H]3OC(=O)C(=C)[C@@H]31)OC2=O`: the TGI in the assay on DMS 273 small cell lung amounted to 8.09 µM; with HL-60(TB) leukemia, 1.12 µM; in the assay on NCI-H226 lung, 30.7 µM; in the assay on NCI/ADR-RES ovarian, 5.18 µM.

Turning to `CCOC1=NC(C(F)(F)F)(C(F)(F)F)N=C(N2CCOCC2)O1`, the TGI in the assay on BT-549 breast, in the assay on DU-145 prostate, in the assay with HL-60(TB) leukemia, with HS 578T breast, in the assay on MDA-MB-231 breast and in the assay with MDA-MB-435 was more than 100 µM in each case. In addition, the TGI in the assay on MDA-N and with NCI/ADR-RES ovarian was more than 100 µM throughout.
